Patent publication US20240216311A1, “FULLY-DILUTABLE, SELF-MICROEMULSIFYING DELIVERY SYSTEMS (SMEDDS) FOR POORLY WATER-SOLUBLE POLAR SOLUTES” (THE GOVERNING COUNCIL OF THE UNIVERSITY OF TORONTO, priority 2020, published 2024)
Like-named read-outs stand apart in the source and are kept apart here. Each block holds one compound with its values, some of them ahead of it.

How the values were obtained:
[1] = literature value, cited from earlier work
[2] = adapted from [21]; cited from earlier work
[3] = Characteristic curvature (Cc) by salinity phase scans with reference surfactant C9E5; type: physicochemical; details: for Cc (characteristic curvature): methodology of Example 1, C9E5 as reference surfactant; for dS*/dx: polar oil in mixtures with C9E5, heptane (cyclohexane for CBD) as oil
Experimental: The characteristic curvature (Cc) of the candidate hydrophilic linker with extremely negative Cc (Cc<−5) was determined following the mixed reference and test surfactant method used by Zarate et al.. […] The salinity phase scans were conducted by vortex-mixing 2 mL of the aqueous surfactant solution, containing a set value of sodium chloride (g NaCl/100 mL of aqueous surfactant solution or % w/v NaCl) with 2 mL of n-heptane at room temperature in 2-dram vials sealed with a silicone-lined cap. […] The difference between the initial volume added to the vial (2 mL), and the excess phase volume was considered the volume solubilized. The ratio between the volume solubilized (in mL) and the total mass of surfactant mixture (0.2 g) was reported as the solubilization parameter (SP) for the given phase at the set salinity.

[4] = cited from earlier work; for Polar area: from ChemSpider; for Dipole moment: from Tantishaiyakul et al. [33]
[5] = from Drugbank, nonylphenol from ChemSpider

Compound: Sucrose distearate
Cc (characteristic curvature) [1]: +4 ± 0.2

Compound: CCCCCCCC/C=C\CCCCCCCC(=O)[O-].[Na+] [Sodium oleate]
Cc (characteristic curvature) [1]: −1.7 ± 0.1 | L [2]: 30 Å | vs/as [2]: 8.4 Å

Compound: C=C(C)[C@@H]1CCC(C)=C[C@H]1c1c(O)cc(CCCCC)cc1O [Cannabidiol (CBD), Cannabidiol]
Cc (characteristic curvature) [3]: +2.6 | dS*/dx [3]: −38 % w/v NaCl | Polar area [4]: 40 Å^2 | Aqueous solubility [4, 5]: 0.0013 wt % | Number of H-acceptors [4, 5]: 2 | Number of H-donors [4, 5]: 2 | pKa [4, 5]: Neutral | Dipole moment [4]: 1.9 Debye

Compound: C=CCc1ccc(O)c(OC)c1 [Eugenol]
Cc (characteristic curvature) [3]: +2.8 | dS*/dx [3]: −37 % w/v NaCl | Polar area [4]: 29 Å^2 | Number of H-acceptors [4, 5]: 2 | Number of H-donors [4, 5]: 1 | pKa [4, 5]: Neutral | Dipole moment [4]: 2.8 Debye

Compound: Nonylphenol
Cc (characteristic curvature) [3]: +7.2 | Polar area [4]: 20 Å^2 | Number of H-acceptors [4, 5]: 2 | Number of H-donors [4, 5]: 1 | pKa [4, 5]: Neutral | Dipole moment [4]: 1.6 Debye | logP ([4]; octanol-water, from Drugbank, nonylphenol from ChemSpider): 5.8

Cc (characteristic curvature) [3]: +4.9
Compound: CC(C)Cc1ccc(C(C)C(=O)O)cc1 (racemic) [Ibuprofen]
Polar area [4]: 37 Å^2 | Number of H-acceptors [4, 5]: 2 | Number of H-donors [4, 5]: 1 | Dipole moment [4]: 1.9 Debye

Compound: CCCCCCCC/C=C\CCCCCCCC(=O)OCCOCC(OCCO)C1OCC(OCCO)C1OCCO (centres unmarked) [Tween 80]
Cc (characteristic curvature) [1]: −3.0 ± 0.7 | L [2]: 34 Å | vs/as [2]: 25.8 Å

Compound: CCCCCCCC/C=C\CCCCCCCC(=O)O [Oleic acid]
Cc (characteristic curvature) [1]: 0 ± 0.1

Compound: CCCCCCCC(=O)[O-].[Na+] [Sodium octanoate]
Cc (characteristic curvature) [1]: −2.1 ± 0.1 | L [2]: 12 Å | vs/as [2]: 4.6 Å

Compound: CCCCCCCC/C=C\CCCCCCCC(=O)OCC(O)CO (centres unmarked) [Glycerol monooleate]
Cc (characteristic curvature) [1]: +6.6 ± 1.5 | Cc (characteristic curvature) ([1]; listed as Peceol™): +6.6

Compound: Sorbitan monooleate [Sorbitan monooleate (Span 80)]
Cc (characteristic curvature) [1]: +5.0 ± 1^

Compound: Disodium stearoyl capryl glutamate
Cc (characteristic curvature) [1]: −5 ± 0.2 | vs/as [2]: 7.9 Å

Compound: CCOC(=O)c1ccc(N)cc1 [Benzocaine]
Cc (characteristic curvature) [3]: +1.6 | dS*/dx [3]: −27 % w/v NaCl

Compound: Sucrose palmitate
Cc (characteristic curvature) [1]: −0.8 ± 0.2

Compound: Sorbitan monolaurate [Sorbitan monolaurate, Span 20]
Cc (characteristic curvature) [1]: +3.5 ± 0.8
